For 25 molecules, pest or weed control results are on record in patent US9144239B2, “Macrocyclic picolinamides as fungicides” (DOW AGROSCIENCES LLC, priority 2012, dated 2015).

The subject of assay [1] is Mycosphaerella graminicola; anamorph: Septoria tritici. Briefly: Fungicidal activity: leaf blotch of wheat (SEPTTR), wheat seedlings. Format: in vivo. The note with it: Zymoseptoria tritici, 100 ppm, wheat. The protocol: Evaluation of Fungicidal Activity: Leaf Blotch of Wheat (Mycosphaerella Graminicola; Anamorph: Septoria tritici; Bayer Code […]) Technical grades of materials were dissolved in acetone, which were then mixed with nine volumes of water containing 110 ppm Triton X-100. The fungicide solutions were applied onto wheat seedlings using an automated booth sprayer to run-off. All sprayed plants were allowed to air dry prior to further handling. Wheat plants (variety Yuma) were grown from seed in a greenhouse in 50% mineral soil/50% soil-less Metro mix until the first leaf was fully emerged, with 7-10 seedlings per pot. These plants were inoculated with an aqueous spore suspension of Septoria tritici either prior to or after fungicide treatments. After inoculation the plants were kept in 100% relative humidity (one day in a dark dew chamber followed by two to three days in a lighted dew chamber at 20° C.) to permit spores to germinate and infect the leaf. The plants were then transferred to a greenhouse set at 20° C. for disease to develop. When disease symptoms were fully expressed on the 1st leaves of untreated plants, infection levels were assessed on a scale of 0 to 100 percent disease severity. Percent disease control was calculated using the ratio of disease severity on treated plants relative to untreated plants.

In assay [2] the test system is Puccinia triticina; synonym: Puccinia recondita f. sp. tritici. Briefly: Fungicidal activity: wheat brown rust (PUCCRT), wheat seedlings. Type of assay: in vivo. The note with it: 100 ppm, wheat. As to the method:
Technical grades of materials were dissolved in acetone, which were then mixed with nine volumes of water containing 110 ppm Triton X-100. The fungicide solutions were applied onto wheat seedlings using an automated booth sprayer to run-off. All sprayed plants were allowed to air dry prior to further handling. Wheat plants (variety Yuma) were grown from seed in a greenhouse in 50% mineral soil/50% soil-less Metro mix until the first leaf was fully emerged, with 7-10 seedlings per pot. These plants were inoculated with an aqueous spore suspension of Septoria tritici either prior to or after fungicide treatments. After inoculation the plants were kept in 100% relative humidity (one day in a dark dew chamber followed by two to three days in a lighted dew chamber at 20° C.) to permit spores to germinate and infect the leaf. The plants were then transferred to a greenhouse set at 20° C. for disease to develop. When disease symptoms were fully expressed on the 1st leaves of untreated plants, infection levels were assessed on a scale of 0 to 100 percent disease severity. Percent disease control was calculated using the ratio of disease severity on treated plants relative to untreated plants. Evaluation of Fungicidal Activity: Wheat Brown Rust (Puccinia […]; Synonym: Puccinia recondita f. Sp. Tritici; Bayer Code PUCCRT) Wheat plants (variety Yuma) were grown from seed in a greenhouse in 50% mineral soil/50% soil-less Metro mix until the first leaf was fully emerged, with 7-10 seedlings per pot. These plants were inoculated with an aqueous spore suspension of Puccinia triticina either prior to or after fungicide treatments. After inoculation the plants were kept in a dark dew room at 22° C. with 100% relative humidity overnight to permit spores to germinate and infect the leaf. The plants were then transferred to a greenhouse set at 24° C. for disease to develop. Fungicide formulation, application and disease assessment followed the procedures as described in the Example A.

Setting [3] is: 24 h, 1 Day Protectant, read-out: Disease Control SEPTTR 1DP.
Where [4] appears, read: 72 h, 3 Day Curative, read-out: Disease Control SEPTTR 3DC.
Setting [5] is: 24 h, 1 Day Protectant, read-out: Disease Control PUCCRT 1DP.
Setting [6] is: 72 h, 3 Day Curative, read-out: Disease Control PUCCRT 3DC.

The structures appear in SMILES notation. Read-outs that look alike come from different tables or passages of the source.

In the case of `CC[C@H]1OC(=O)[C@@H](NC(=O)c2nccc(OC)c2O)COC[C@H](OCC(C)C)[C@H]1OCC(C)C` [Compound 19, N-((3S,7S,8S,9R)-9-ethyl-7,8-diisobutoxy-2-oxo-1,5-dioxonan-3-yl)-3-hydroxy-4-methoxypicolinamide], the pest or weed control at 100 ppm in assay [1] (setting [3]) and in assay [1] (setting [4]) was 0 to 80% in each case.

As to `COc1ccnc(C(=O)N[C@@H]2COC[C@H](OCc3ccccc3)[C@@H](OCc3ccccc3)[C@@H](C)OC2=O)c1OCOC(C)=O` [Compound 31], the pest or weed control at 100 ppm in assay [2] (setting [5]), in assay [2] (setting [6]), in assay [1] (setting [3]) and in assay [1] (setting [4]) was 0 to 80% each time.

For `CCCO[C@H]1[C@H](C)OC(=O)[C@@H](NC(=O)c2nccc(OC)c2O)COC[C@@H]1Oc1ccc(C(F)(F)F)cc1` [Compound 197], the pest or weed control at 100 ppm in assay [2] (setting [5]) fell in the range of 80 to 100%.

`COc1ccnc(C(=O)N[C@H]2COC[C@H](OCc3ccccc3)[C@@H](OCc3ccccc3)[C@@H](C)OC2=O)c1OCOC(C)=O` [Compound 51]: the pest or weed control at 100 ppm in assay [2] (setting [5]), in assay [2] (setting [6]), in assay [1] (setting [3]) and in assay [1] (setting [4]) was 0 to 80% throughout.

With `CCOCC(=O)OCOc1c(OC)ccnc1C(=O)N[C@H]1COC[C@H](Oc2ccc(OC)cc2)[C@@H](Oc2ccc(OC)cc2)[C@H](C)OC1=O` [Compound 219], the pest or weed control at 100 ppm in assay [2] (setting [5]) fell in the range of 80 to 100%; in assay [2] (setting [6]), 80 to 100%; in assay [1] (setting [3]) it was 80 to 100%; in assay [1] (setting [4]), 0 to 80%.

As for `COc1ccnc(C(=O)N[C@H]2COC[C@H](OC3CCCC3)[C@@H](Oc3ccccc3)[C@H](C)OC2=O)c1O` [Compound 204], the pest or weed control at 100 ppm in assay [2] (setting [5]), in assay [2] (setting [6]), in assay [1] (setting [3]) and in assay [1] (setting [4]) was 80 to 100% throughout.

On to `COc1ccnc(C(=O)N[C@H]2COC[C@H](OCc3ccccc3)[C@@H](OCc3ccccc3)COC2=O)c1O` [Compound 5, N-((3S,7S,8S)-7,8-bis(benzyloxy)-2-oxo-1,5-dioxonan-3-yl)-3-hydroxy-4-methoxypicolinamide], for which the pest or weed control at 100 ppm in assay [2] (setting [5]), in assay [2] (setting [6]), in assay [1] (setting [3]) and in assay [1] (setting [4]) was 0 to 80% in each case.

Take `COc1ccnc(C(=O)N[C@H]2COC[C@@H](OCc3ccccc3)[C@H](OCc3ccccc3)[C@H](C)OC2=O)c1OCOC(C)=O` [Compound 40]: the pest or weed control at 100 ppm in assay [2] (setting [5]) fell in the range of 80 to 100%; in assay [2] (setting [6]), 0 to 80%; in assay [1] (setting [3]), 0 to 80%; in assay [1] (setting [4]) it was 0 to 80%.

Regarding `COc1ccnc(C(=O)N[C@H]2COC[C@H](OC3CCCC3)[C@@H](Oc3ccccc3)[C@H](C)OC2=O)c1OCOC(C)=O` [Compound 223], the pest or weed control at 100 ppm in assay [2] (setting [5]), in assay [2] (setting [6]), in assay [1] (setting [3]) and in assay [1] (setting [4]) was 80 to 100% throughout.

As to `COc1ccnc(C(=O)N[C@H]2CO[C@H](C)[C@H]3OC(C)(C)O[C@@H]3[C@@H](C)OC2=O)c1O` [Compound 27], the pest or weed control at 100 ppm in assay [2] (setting [5]), in assay [2] (setting [6]), in assay [1] (setting [3]) and in assay [1] (setting [4]) was 0 to 80% throughout.

As for `C=C(C)CO[C@H]1COC[C@@H](NC(=O)c2nccc(OC)c2O)C(=O)OC[C@@H]1OCC(=C)C` [Compound 9], the pest or weed control at 100 ppm in assay [2] (setting [5]), in assay [2] (setting [6]), in assay [1] (setting [3]) and in assay [1] (setting [4]) was 0 to 80% each time.

Take `COc1ccnc(C(=O)N[C@H]2COC[C@H](OCC(C)C)[C@@H](OCC(C)C)[C@@H](COCC(C)C)OC2=O)c1OCOC(C)=O` [Compound 17]: the pest or weed control at 100 ppm in assay [2] (setting [5]), in assay [2] (setting [6]) and in assay [1] (setting [3]) was 0 to 80% each time.

In the case of `COc1ccnc(C(=O)N[C@H]2COC[C@H](Oc3ccc(F)cc3)[C@@H](OCC(C)C)[C@H](C)OC2=O)c1O` [Compound 207], the pest or weed control at 100 ppm in assay [2] (setting [5]), in assay [2] (setting [6]), in assay [1] (setting [3]) and in assay [1] (setting [4]) was 80 to 100% each time.

Consider `COc1ccnc(C(=O)N[C@H]2COC[C@H](Oc3ccccc3)[C@@H](OCC=C3CCCCC3)[C@H](C)OC2=O)c1O` [Compound 212], for which the pest or weed control at 100 ppm was in the range of 80 to 100% in assay [2] (setting [5]), 0 to 80% in assay [2] (setting [6]), 80 to 100% in assay [1] (setting [3]) and 0 to 80% in assay [1] (setting [4]).

Take `COc1ccnc(C(=O)N[C@@H]2COC[C@H](OCC(C)C)[C@@H](OCC(C)C)COC2=O)c1OCOC(C)=O` [Compound 14]: the pest or weed control at 100 ppm in assay [2] (setting [5]) is 80 to 100%; in assay [2] (setting [6]), 0 to 80%; in assay [1] (setting [3]), 0 to 80%.

For `COc1ccnc(C(=O)N[C@H]2COC[C@@H](OCc3ccccc3)[C@H](OCc3ccccc3)[C@H](C)OC2=O)c1O` [Compound 38], the pest or weed control at 100 ppm in assay [2] (setting [5]) was 80 to 100%; in assay [2] (setting [6]) it was 0 to 80%; in assay [1] (setting [3]) it was 0 to 80%; in assay [1] (setting [4]), 0 to 80%.

Consider `CCOCC(=O)OCOc1c(OC)ccnc1C(=O)N[C@H]1COC[C@H](Oc2ccc(C)cc2)[C@@H](Oc2ccc(C)cc2)[C@H](C)OC1=O` [Compound 225], for which the pest or weed control at 100 ppm in assay [2] (setting [5]), in assay [2] (setting [6]), in assay [1] (setting [3]) and in assay [1] (setting [4]) was 80 to 100% throughout.

In the case of `COc1ccnc(C(=O)N[C@H]2COC[C@H](OCC(C)C)[C@@H](OCC(C)C)COC2=O)c1O` [Compound 8], the pest or weed control at 100 ppm fell in the range of 0 to 80% in assay [2] (setting [5]), 80 to 100% in assay [2] (setting [6]), 0 to 80% in assay [1] (setting [3]) and 0 to 80% in assay [1] (setting [4]).

Consider `COc1ccc(O[C@H]2[C@H](C)OC(=O)[C@@H](NC(=O)c3nccc(OC)c3O)COC[C@@H]2Oc2ccc(OC)cc2)cc1` [Compound 201], for which the values for the pest or weed control at 100 ppm in assay [2] (setting [5]), in assay [1] (setting [3]) and in assay [1] (setting [4]) were 80 to 100%, 80 to 100% and 0 to 80%, respectively.

For `COc1ccnc(C(=O)N[C@H]2COC[C@H](OCc3ccccc3)[C@@H](OCc3ccccc3)[C@@H](C)OC2=O)c1O` [Compound 49], the pest or weed control at 100 ppm in assay [2] (setting [5]), in assay [2] (setting [6]), in assay [1] (setting [3]) and in assay [1] (setting [4]) was 0 to 80% throughout.

Regarding `COc1ccnc(C(=O)N[C@H]2COC[C@H](OCC(C)C)[C@@H](Oc3ccc(C(F)(F)F)cc3)[C@H](C)OC2=O)c1O` [Compound 195], in assay [2] (setting [5]), the pest or weed control at 100 ppm fell in the range of 80 to 100%.

`CC[C@H]1OC(=O)[C@H](NC(=O)c2nccc(OC)c2O)COC[C@H](OCC(C)C)[C@H]1OCC(C)C` [Compound 22]: the pest or weed control at 100 ppm in assay [1] (setting [3]) and in assay [1] (setting [4]) was 0 to 80% throughout.

Take `COc1ccnc(C(=O)N[C@H]2COC[C@H](OCC(C)C)[C@@H](Oc3cccc(Cl)c3)[C@H](C)OC2=O)c1O` [Compound 194]: the pest or weed control at 100 ppm in assay [2] (setting [5]) and in assay [2] (setting [6]) was 80 to 100% each time.

As to `CC[C@H]1OC(=O)[C@@H](NC(=O)c2nccc(OC)c2OCOC(C)=O)COC[C@H](OCC(C)C)[C@H]1OCC(C)C` [Compound 20], the pest or weed control at 100 ppm in assay [1] (setting [3]) and in assay [1] (setting [4]) was 0 to 80% in each case.

In the case of `COc1ccc(O[C@H]2COC[C@H](NC(=O)c3nccc(OC)c3O)C(=O)O[C@@H](C)[C@@H]2OC(=O)C(C)C)cc1` [Compound 200], the pest or weed control at 100 ppm in assay [1] (setting [3]) was 0 to 80%.
